# Tests used:
# [1] = Photophysical measurements of the lanthanide complexes (absorption, emission, brightness, lifetime); type: physicochemical
# [2] = Solubility in H2O (biological and buffer media); type: physicochemical; conditions: for Solubility in H2O: yes/no
smiles,measurement,setting,value
COC(=O)COc1ccc(C#Cc2cc3nc(c2)CN(CC(=O)O)Cc2cc(C#Cc4ccc(OCC(=O)OC)cc4)cc(n2)CN(CC(=O)O)Cc2cc(C#Cc4ccc(OCCCN)cc4)cc(n2)CN(CC(=O)O)C3)cc1 [Complex 62],Absorption λmax,[1],320 nm
same,Solubility in water (biological and buffer media),[2],insoluble in water
same,Solubility in H2O,[2],no
COC(=O)COc1cc(OC)c(-c2cc3nc(c2)CN(CC(=O)O)Cc2cc(-c4c(OC)cc(OCC(=O)OC)cc4OC)cc(n2)CN(CC(=O)O)Cc2cc(-c4ccc(OCCCN)cc4)cc(n2)CN(CC(=O)O)C3)c(OC)c1 [Complex 63],Absorption λmax,[1],328 nm
same,Solubility in water (biological and buffer media),[2],insoluble in water
same,Solubility in H2O,[2],no
O=C(O)CN1Cc2cccc(n2)CN(CC(=O)O)Cc2cccc(n2)CN(CC(=O)O)Cc2cccc(n2)C1 [Pyridinophane],Absorption λmax,[1],267 nm
same,Brightness ε × Φ (H2O),[1]; in H2O,564
same,Lifetime τH2O,[1]; in H2O,0.78 ms
same,Solubility in water (biological and buffer media),[2],soluble in water
same,Solubility in H2O,[2],yes

# — patent US10597409B2, “Water-soluble triazapyridinophane-based complexing agents and corresponding fluorescent lanthanide complexes” (CISBIO BIOASSAYS, priority 2015, dated 2020)
